The values that follow come from patent publication US5719279A, “Asymmetrically substituted xanthines” (Boehringer Ingelheim KG, priority 1992, dated 1998).

Molecules are shown by their SMILES.

The first experiment concerns the target T1, human A1 adenosine receptor (Homo sapiens, UniProt P30542).
T1 sequence (P30542 1-326): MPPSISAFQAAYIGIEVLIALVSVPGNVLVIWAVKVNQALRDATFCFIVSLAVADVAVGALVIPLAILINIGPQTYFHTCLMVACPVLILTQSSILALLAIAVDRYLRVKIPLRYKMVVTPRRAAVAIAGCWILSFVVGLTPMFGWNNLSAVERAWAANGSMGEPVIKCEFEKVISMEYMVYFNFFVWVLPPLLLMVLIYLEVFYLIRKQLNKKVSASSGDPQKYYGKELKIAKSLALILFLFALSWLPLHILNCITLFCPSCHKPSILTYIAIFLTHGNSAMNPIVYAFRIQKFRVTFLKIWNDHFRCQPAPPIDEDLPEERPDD
Briefly: receptor binding, A1 adenosine receptor (analogously to Ensinger et al.). Particulars: Table Ia. Here is the method: The receptor binding values were determined analogously to Ensinger et al. in "Cloning and functional characterisation of human A1 adenosine receptor--Biochemical and Biophysical Communications, Vol 187, No. 2, 919-926, 1992".
Compound `CCCn1c(=O)c2[nH]c(C3CCCC3)nc2n(CCCC#N)c1=O` [Example 01, 3-(3-cyanopropyl)-8-cyclopentyl-1-propylxanthine] came in with a Ki of 7.5 nM.

In turn, `CCCn1c(=O)c2[nH]c(C3CCCC3)nc2n(CCCOC)c1=O` [Example 04, 8-cyclopentyl-3-(3-methoxypropyl)-1-propylxanthine] displayed a Ki of 8 nM.

Regarding `CCCn1c(=O)c2[nH]c(C3CCCC3)nc2n(CCO)c1=O` [Example 05, 8-cyclopentyl-3-(2-hydroxyethyl)-1-propylxanthine], the Ki is 46.7 nM.

The compound `CCCn1c(=O)c2[nH]c(C3CCCC3)nc2n(CCCO)c1=O` [Example 06, 8-cyclopentyl-3-(3-hydroxypropyl)-1-propylxanthine] displayed a Ki of 66.8 nM.

`CCCn1c(=O)c2[nH]c(C3CCCC3)nc2n(CCOC(C)=O)c1=O` [Example 07, 8-cyclopentyl-3-(2-(methylcarbonyloxy)-ethyl)-1-propylxanthine] registered an inhibitory constant (Ki) of 2.7 nM.

As to `CCCn1c(=O)c2[nH]c(C3CCCC3)nc2n(CCCOC(C)=O)c1=O` [Example 08, 8-cyclopentyl-3-(3-acetoxypropyl)-1-propylxanthine], the Ki amounted to 3.5 nM. This Ki and that of the compound before are within 1.5-fold of each other.

Regarding `CCCn1c(=O)c2[nH]c(C3CCCC3)nc2n(CCC(=O)OC)c1=O` [Example 10, 8-cyclopentyl-3-(2-methoxycarbonylethyl)-1-propylxanthine], affinity was put at a Ki of 3.1 nM.

On to `CCCn1c(=O)c2[nH]c(C3CCCC3)nc2n(CCC(N)=O)c1=O` [Example 11, 3-(2-carbamoylethyl)-8-cyclopentyl-1-propylxanthine], for which affinity was put at a Ki of 4 nM.

For the compound `CCCn1c(=O)c2[nH]c(C3CCCC3)nc2n(CCC(=O)N2CCOCC2)c1=O` [Example 14, 8-cyclopentyl-3-(2-(N-morpholinocarbonyl)-ethyl)-1-propylxanthine], the affinity corresponds to a Ki of 36.4 nM.

With `CCCn1c(=O)c2[nH]c(C3CCCC3)nc2n(CCC(C)O)c1=O` (stereo not shown) [Example 15, 8-cyclopentyl-3-(3-hydroxybutyl)-1-propylxanthine], the Ki was 6.4 nM.

Consider `CCCn1c(=O)c2[nH]c(C3CCCC3)nc2n(CC=NO)c1=O` [Example 17, 8-cyclopentyl-3-hydroximinoethyl-1-propylxanthine], for which the inhibition constant Ki stood at 3.8 nM.

`CCCn1c(=O)c2[nH]c(C3CCCC3)nc2n(CCCN2CCOCC2)c1=O` [Example 19, 8-cyc lopentyl-3-(3-(N-morpholino)-propyl)-1-propylxanthine] returned an inhibition constant Ki of 11.5 nM.

Regarding `CCCn1c(=O)c2[nH]c(C3CCCC3)nc2n(CCc2ccc(O)cc2)c1=O` [Example 24, 8-cyclopentyl-3-(2-(p-hydroxyphenyl)-ethyl)-1-propylxanthine], the Ki turned out to be 1.7 nM.

On to `CCCn1c(=O)c2[nH]c(C3CCCC3)nc2n(CCc2ccc(OC(C)=O)cc2)c1=O` [Example 28, 8-cyclopentyl-3-(2-(p-(methylcarbonyloxy)-phenyl)-ethyl)-1-propylxanthine], for which affinity was put at a Ki of 29.3 nM.

As to `CCCn1c(=O)c2[nH]c(C3CCCC3)nc2n(CCCc2ccc(OCC(=O)OCC)cc2)c1=O` [Example 31, 8-cyclopentyl-3-(3-(p-(ethoxycarbonylmethyloxy)-phenyl)-propyl)-1-propylxanthine], the Ki is 9.1 nM.

On to `CCCn1c(=O)c2[nH]c(C3CCCC3)nc2n(CCSCCO)c1=O` [Example 47, 8-cyclopentyl-3-(2-(2-hydroxyethyl)-thioethyl)-1-propylxanthine], for which the Ki was determined as 2.1 nM.

The compound `CCCn1c(=O)c2[nH]c(C3CCCC3)nc2n(CCCc2cccnc2)c1=O` [Example 52] yielded a Ki of 5 nM.

In turn, `CCCn1c(=O)c2[nH]c(C3CCCC3)nc2n(CCc2ccncc2)c1=O` [Example 59] gave an inhibition constant Ki of 2 nM.

`CCCn1c(=O)c2[nH]c(C3CCCC3)nc2n(CCCC(N)=O)c1=O` [Example 60, 3-(3-(aminocarbonyl)-propyl)-8-cyclopentyl-1-propylxanthine] yielded a Ki of 3.8 nM.

The compound `CCCn1c(=O)c2[nH]c(C3CCCC3)nc2n(CCN2CCSCC2)c1=O` [Example 68] displayed a Ki of 32.6 nM.

With `CCCn1c(=O)c2[nH]c(C3CCCC3)nc2n(CCS(=O)(=O)CCO)c1=O` [Example 70, 8-cyclopentyl-3-(2-(2-hydroxyethyl)-sulphonylethyl)-1-propyl-xanthine], the Ki worked out at 6.2 nM.

The next experiment concerns CF PAC cells. The experiment can be described thus: efflux of chloride ions in CF PAC cells (preliminary investigations). It is filed as cell-based, human (patients suffering from cystic fibrosis). Particulars: activity of A1-antagonists in CF PAC cells. The text has this: Cystic fibrosis--also known as mucoviscidosis--is a hereditary disorder caused by a genetic defect on a certain chromosome. Only homozygotic carriers of the feature succumb to the disease. The genetic defects leads to the .dysfunction of exocrine glands. As a result of increased production and greater viscosity of the secretions of the mucous glands in the bronchi, severe complications may arise in the respiratory tract. Preliminary investigations have shown that A1 -antagonists increase the efflux of chloride ions, e.g..in CF PAC cells. The cells come from a pancreas adenocarcinoma cell line which was isolated from patients suffering from cystic fibrosis (CF).
Regarding `Nc1nc(Cl)nc2c1ncn2[C@@H]1O[C@H](CO)[C@@H](O)[C@H]1O` [2-chloroadenosine], the “blockade of the chloride efflux activity by agonists” value is recorded as “successfully blocked”.

By Ki is commonly meant the dissociation constant of the complex between target and ligand, obtained from inhibition or displacement. Low values mean tighter binding, high ones weaker binding.
